Assay [1] relates to human breast cancer cell line MCF-7. The assay can be described thus: Growth inhibition of human breast cancer cell MCF-7 (Methylene Blue staining). Conditions: read-out: Growth inhibition of MCF-7 (human breast cancer cells) (IC₅₀). The assay is classed as cell-based. As for the experimental part:
(Growth inhibition of human breast cancer cell MCF-7)
Effect of the compound of the present invention on breast cancer were examined using a human breast cancer cell line MCF-7. Predetermined dilutions of each compound of the present invention were added to a 96 well microtiter plate purchased from Falcon, and the cancer cells were inoculated into each well with a inoculum size of 10³ cells per well (10⁴ cells in the case of 100 nM estrogen (E)). The thus prepared plate was supplied with RPMI 1640 medium which has been supplemented with 5% of fetal bovine serum and further with a predetermined amount of estrogen, and incubated at 37°C for 6 days (3 days in the case of 100 nM estrogen) in the presence of 5% CO₂. Thereafter, viable cells were fixed with glutaraldehyde and stained with Methylene Blue to measure absorbance at 665 nm.

Assay [2] concerns human breast cancer cultured cell line ZR-75-1. As to the kind of experiment: Growth inhibition of human breast cancer cultured cell line ZR-75-1 (Methylene Blue staining). The note with it: 120 h, ZR-75-1, 10⁻⁹ mole of estrogen, 5 days, read-out: IC₅₀. The class given is cell-based. The procedure:
Effect of the triphenylalkene derivative of the present invention on breast cancer were examined using a human breast cancer cultured cell line ZR-75-1. Predetermined dilutions of each triphenylalkene derivative of the present invention were added to a 96 well microtiter plate purchased from Falcon, and the cancer cells were inoculated into each well with a inoculum size of 2 x 10³ cells per well. The thus prepared plate was supplied with RPMI 1640 medium which has been supplemented with 10% of fetal bovine serum and further with 10⁻⁹ mole of estrogen, and incubated at 37°C for 5 days in the presence of 5% CO₂. Thereafter, viable cells were fixed with glutaraldehyde, stained with Methylene Blue and then extracted with 0.33 N of hydrochloric acid to measure absorbance at 665 nm. […]

The subject of the next assay is osteoporosis model rats. The assay can be described thus: Inhibition of decrease in bone density in ovariectomized osteoporosis model rats. The assay is classed as in vivo, Fisher rats. Conditions: 400 µg/kg orally once a day for 4 months. As for the experimental part:
Effect of the compound of the present invention to inhibit decrease in the bone density was evaluated using osteoporosis model rats. […] The remaining 8 rats were subjected to sham operation and used as a control group (Group C). […] After completion of the administration, the left side femur of each rat was excised to measure its volume (V) and dry weight (W) to calculate a bone density (D) based on a formula, D = W/V [formula] . […]

[3] abbreviates: MCF7, 144 h, 1 nM added amount of E (estrogen), 6 days.
Where [4] appears, read: MCF7, 72 h, 100 nM added amount of E (estrogen), 3 days, 10⁴ cells per well.
Where [5] appears, read: MCF7, 144 h, 0.1 nM added amount of E (estrogen), 6 days.

Read-outs that look alike come from different tables or passages of the source.

As to `CCC(=C(c1ccc(O)cc1)c1ccc(OC(CN(C)C)CN(C)C)cc1)c1ccc2c(c1)OCO2` [Compound 18, (E·Z)-1-[4-(1,3-bisdimethylamino-2-propoxy)-phenyl]-1-(4-hydroxyphenyl)-2-(3,4-methylenedioxyphenyl)-1-butene], the IC50 in assay [1] (setting [3]) amounted to 430 nM. With `CCC(=C(c1ccc(O)cc1)c1ccc(OCC(O)CN(C)C)cc1)c1ccccc1` (stereo not drawn) [Compound 7, (E·Z)-1-[4-(3-dimethylamino-2-hydroxypropoxy)-phenyl]-1-(4-hydroxyphenyl)-2-phenyl-1-butene], the IC50 in assay [1] (setting [3]) was found to be 210 nM. In the case of `CC/C(=C(\c1ccccc1)c1ccc(OCC(O)CNC2CCCCC2)cc1)c1ccccc1` (stereo not drawn) [Compound 12, (Z)-1-[4-(3-cyclohexylamino-2-hydroxypropoxy)-phenyl]-1,2-diphenyl-1-butene], the values for the IC50 in assay [1] (setting [3]) and in assay [2] were 1200 nM and 1400 nM, respectively. In the case of `CCC(=C(c1ccccc1)c1ccc(OCC(O)CNC2CCCC2)cc1)c1ccccc1` (stereo not drawn) [Compound 40], the IC50 in assay [1] (setting [4]) is 2700 nM.

With `CCC(=C(c1ccc(O)cc1)c1ccc(OCCN(C)C)cc1)c1ccc2c(c1)OCO2` [Compound 20, (E·Z)-1-[4-(2-dimethylaminoethoxy)phenyl]-1-(4-hydroxyphenyl)-2-(3,4-methylenedioxyphenyl)-1-butene], the IC50 in assay [1] (setting [3]) was found to be 190 nM. The same measure, in the same setting: to `CCC(=C(c1ccc(O)cc1)c1ccc(OCC(CN(C)C)OC(C)=O)cc1)c1ccc2c(c1)OCO2` (stereo not drawn) [Compound 16, (E·Z)-1-[4-(3-dimethylamino-2-acetoxypropoxy)-phenyl]-1-(4-hydroxyphenyl)-2-(3,4-methylenedioxyphenyl)-1-butene] belongs 160 nM. Regarding `CCC(=C(c1ccccc1)c1ccc(OCC(O)CN(C)CC)cc1)c1ccc2c(c1)OCO2` (stereo not drawn) [Compound 33], the IC50 in assay [1] (setting [5]) came to 600 nM. Still for that read-out and setting: to `CC/C(=C(\c1ccccc1)c1ccc(OCC(O)CNC(C)C)cc1)c1ccccc1` (stereo not drawn) [Compound 14, (Z)-1-[4-(3-isopropylamino-2-hydroxypropoxy)-phenyl]-1,2-diphenyl-1-butene] belongs 410 nM. As to `CCC(=C(c1ccc(OCOC)cc1)c1ccc(OCC(O)CN(C)C)cc1)c1ccc2c(c1)OCO2` (stereo not drawn) [Compound 32], the IC50 in assay [1] (setting [4]) was determined as 3800 nM. As for `CCC(=C(c1ccccc1)c1ccc(OC(CN(CC)CC)CN(CC)CC)cc1)c1ccccc1` [Compound 36], in assay [1] (setting [3]), the IC50 was determined as 1600 nM. Same read-out and setting: to `CCC(=C(c1ccc(OCCN(C)C)cc1)c1cccc(C=NO)c1)c1ccccc1` [Compound 23, 2-[4-[1-(3-hydroxyiminomethylphenyl)-2-phenyl-1-butenyl]phenoxy]-N,N-dimethylamine] belongs 6800 nM; to `CCC(=C(c1ccc(C=NOC)cc1)c1ccc(OCCN(C)C)cc1)c1ccccc1` [Compound 22, 2-[4-[1-(4-methoxyiminomethylphenyl)-2-phenyl-1-butenyl]phenoxy]-N,N-dimethylamine], 7100 nM. As for `CCC(=C(c1ccc(O)cc1)c1ccc(OCC(O)CNC)cc1)c1ccc2c(c1)OCO2` (stereo not drawn) [Compound 10, (E·Z)-1-[4-(3-methylamino-2-hydroxypropoxy)-phenyl]-1-(4-hydroxyphenyl)-2-(3,4-,methylenedioxyphenyl)-1-butene], the IC50 was determined as 500 nM in assay [1] (setting [3]) and 870 nM in assay [2].

Consider `CCC(=C(c1ccc(O)cc1)c1ccc(OCCNC2CCCCC2)cc1)c1ccc2c(c1)OCO2` [Compound 19, (E·Z)-1-[4-(2-cyclohexylaminoethoxy)phenyl]-1-(4-hydroxyphenyl)-2-(3,4-methylenedioxyphenyl)-1-butene], for which, in assay [1] (setting [3]), the IC50 was 160 nM.

Consider `CCC(=C(c1ccc(O)cc1)c1ccc(OC(CN(CC)CC)CN(CC)CC)cc1)c1ccc2c(c1)OCO2` [Compound 37], for which the IC50 in assay [1] (setting [3]) was found to be 60 nM. For `CCC(=C(c1ccc(O)cc1)c1ccc(OCC(O)CN(C)C)cc1)c1ccc2c(c1)OCO2` (stereo not drawn) [Compound 1, (E·Z)-1-[4-(3-dimethylamino-2-hydroxypropoxy)-phenyl]-1-(4-hydroxyphenyl)-2-(3,4-methylenedioxyphenyl)-1-butene], the “inhibition of decrease in the bone density caused by the ovariectomy” value with osteoporosis model rats (compared with Tamoxifen) was “significantly inhibited decrease in the bone density”. In the assay with osteoporosis model rats (left femur, D = W/V, ovariectomized rats), the Bone density is on record as 1.0312. Take `CCNCC(O)COc1ccc(/C(=C(/CC)c2ccccc2)c2ccccc2)cc1` (stereo not drawn) [Compound 13, (Z)-1-[4-(3-ethylamino-2-hydroxypropoxy)phenyl]-1,2-diphenyl-1-butene]: the IC50 in assay [1] (setting [3]) was found to be 5400 nM. The same measure, in the same setting: in the case of `CCC(=C(c1ccc(OCC(CN(C)C)OC(C)=O)cc1)c1ccc(OC(C)=O)cc1)c1ccc2c(c1)OCO2` (stereo not drawn) [Compound 15, (E·Z)-1-[4-(3-dimethylamino-2-acetoxypropoxy)-phenyl]-1-(4-acetoxyphenyl)-2-(3,4-methylenedioxyphenyl)-1-butene] it was 310 nM. With `CCC(=C(c1ccccc1)c1ccc(OCC(O)CNC2CCCCC2)cc1)c1ccccc1` (stereo not drawn) [Compound 39], in assay [1] (setting [4]), the IC50 was determined as 5600 nM. Still for that read-out and setting: in the case of `CCC(=C(c1ccccc1)c1ccc(OCC(O)CNC2CCC2)cc1)c1ccccc1` (stereo not drawn) [Compound 41] it was 3400 nM. Regarding `CCC(=C(c1ccccc1)c1ccc(OC(CN(C)C)CN(C)C)cc1)c1ccccc1` [Compound 35], in assay [1] (setting [3]), the IC50 came out at 1900 nM. On to `CCC(=C(c1ccc(O)cc1)c1ccc(OCC(O)CN(C)C2CCCCC2)cc1)c1ccc2c(c1)OCO2` (stereo not drawn) [Compound 4, (E·Z)-1-[4-(3-cyclohexylmethylamino-2-hydroxypropoxy)phenyl]-1-(4-hydroxyphenyl)-2-(3,4-methylenedioxyphenyl)-1-butene], for which the IC50 in assay [1] (setting [3]) worked out at 210 nM. The same measure, in the same setting: in the case of `CCC(=C(c1ccc(C=NO)cc1)c1ccc(OCCN(C)C)cc1)c1ccccc1` [Compound 21, 2-[4-[1-(4-hydroxyiminomethylphenyl)-2-phenyl-1-butenyl]phenoxy]-N,N-dimethylethylamine] it was 4600 nM. Consider `CCC(=C(c1ccccc1)c1ccc(OCC(O)CN(C)C)cc1)c1ccc2c(c1)OCO2` (stereo not drawn) [Compound 34], for which the IC50 in assay [1] (setting [4]) was determined as 10200 nM; in assay [1] (setting [3]), 6300 nM. Turning to `CCC(=C(c1ccc(O)cc1)c1ccc(OCC(O)CN(CC)CC)cc1)c1ccc2c(c1)OCO2` (stereo not drawn) [Compound 2, (E·Z)-1-[4-(3-diethylamino-2-hydroxypropoxy)-phenyl]-1-(4-hydroxyphenyl)-2-(3,4-methylenedioxyphenyl)-1-butene], the IC50 in assay [1] (setting [3]) stood at 60 nM.

Regarding `CCC(=C(c1ccc(O)cc1)c1ccc(OCC(O)CN(C)CC)cc1)c1ccc2c(c1)OCO2` (stereo not drawn) [Compound 3, (E·Z)-1-[4-(3-ethylmethylamino-2-hydroxypropoxy)phenyl]-1-(4-hydroxyphenyl)-2-(3,4-methylenedioxyphenyl)-1-butene], the IC50 in assay [1] (setting [3]) came to 100 nM.

Consider `CCNCC(O)COc1ccc(C(=C(CC)c2ccc3c(c2)OCO3)c2ccc(O)cc2)cc1` (stereo not drawn) [Compound 11, (E·Z)-1-[4-(3-ethylamino-2-hydroxypropoxy)-phenyl]-1-(4-hydroxyphenyl)-2-(3,4-methylenedioxyphenyl)-1-butene], for which the IC50 in assay [1] (setting [3]) was found to be 50 nM; in assay [2] it was 1600 nM. On to `CCC(=C(c1ccccc1)c1ccc(OCC(O)CNC2CCCCC2)cc1)c1ccc2c(c1)OCO2` (stereo not drawn) [Compound 38], for which, in assay [1] (setting [5]), the IC50 was determined as 210 nM.

As to `CCC(=C(c1ccccc1)c1ccc(OCC(O)CN(C)C)cc1)c1ccccc1` (stereo not drawn) [Compound 30], the IC50 in assay [1] (setting [3]) is 3300 nM. The same measure, in the same setting: in the case of `CC/C(=C(\c1ccccc1)c1ccc(OCC(O)CN(C)C)cc1)c1ccc2c(c1)OCO2` (stereo not drawn) [Compound 6, (Z)-1-[4-(3-dimethylamino-2-hydroxypropoxy)-phenyl]-1-phenyl-2-(3,4-methylenedioxyphenyl)-1-butene] it was 1800 nM.

On to `CCC(=C(c1ccc(O)cc1)c1ccc(OCC(O)CNC2CCCCC2)cc1)c1ccccc1` (stereo not drawn) [Compound 8, (E·Z)-1-[4-(3-cyclohexylamino-2-hydroxypropoxy)-phenyl]-1-(4-hydroxyphenyl)-2-phenyl-1-butene], for which the IC50 in assay [1] (setting [3]) came out at 620 nM; in assay [2], 1400 nM. For the molecule `CCC(=C(c1ccc(O)cc1)c1ccc(OCC(O)CNC2CCCCC2)cc1)c1ccc2c(c1)OCO2` (stereo not drawn) [Compound 9, (E·Z)-1-[4-(3-cyclohexylamino-2-hydroxypropoxy)-phenyl]-1-(4-hydroxyphenyl)-2-(3,4-,methylenedioxyphenyl)-1-butene], the IC50 in assay [1] (setting [3]) is 460 nM; in assay [2] it was 950 nM.

These data come from patent EP0589039A1, “[…] DERIVATIVE AND PHARMACEUTICAL PREPARATION CONTAINING THE SAME” (Asahi Kasei Kogyo Kabushiki Kaisha, priority 1991, dated 1992).
